Paper PMC10648927, “Examining the activity of cefepime-taniborbactam against Burkholderia cepacia complex and Burkholderia gladioli isolated from cystic fibrosis patients in the United States” (Antimicrobial Agents and Chemotherapy, 2023)
Values after ≈ are worked out from the molar mass of the structure shown.

Legend:
Parameters in all cases: agar dilution MIC, growth inhibition of clinical Burkholderia isolates
[1] = tested on: T1, B. multivorans AU15954; test: microbe, parasite or virus in culture; conditions: Burkholderia multivorans, AU15954
T1 construct: AU15954
Outline: (§1)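 MICs by agar dilution against Bcc and B. gladioli clinical isolates, interpreted with CLSI breakpoints where available; K. pneumoniae ATCC 700603 (SHV-18) and ATCC BAA-1705 (KPC) served as quality controls.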

[2] = tested on: T2, B. multivorans AU4507; test: microbe, parasite or virus in culture; conditions: Burkholderia multivorans, AU4507
T2 construct: AU4507
Outline: as §1

[3] = tested on: T3, B. pyrrocinia AU4348; test: microbe, parasite or virus in culture; conditions: Burkholderia pyrrocinia, AU4348
T3 construct: AU4348
Outline: as §1

[4] = tested on: T4, B. contaminans AU15669; test: organism not typed
T4 construct: AU15669
Outline: as §1

[5] = tested on: T5, B. contaminans AU25403; test: organism not typed
T5 construct: AU25403
Outline: as §1

[6] = tested on: T6, B. multivorans AU25543; test: microbe, parasite or virus in culture; conditions: Burkholderia multivorans, AU25543
T6 construct: AU25543
Outline: as §1

[7] = tested on: T7, B. multivorans AU19659; test: microbe, parasite or virus in culture; conditions: Burkholderia multivorans, AU19659
T7 construct: AU19659
Outline: as §1

[8] = tested on: T8, B. cenocepacia AU20902; test: microbe, parasite or virus in culture; conditions: Burkholderia cenocepacia, AU20902
T8 construct: AU20902
Outline: as §1

[9] = tested on: T9, Burkholderia cepacia complex Bcc Indeterminate AU19821; test: microbe, parasite or virus in culture; conditions: Burkholderia cepacia
T9 construct: AU19821
Outline: as §1

[10] = tested on: T10, Burkholderia cepacia complex Bcc Indeterminate AU18117; test: microbe, parasite or virus in culture; conditions: Burkholderia cepacia
T10 construct: AU18117
Outline: as §1

[11] = tested on: T11, B. contaminans AU21811; test: organism not typed
T11 construct: AU21811
Outline: as §1

[12] = tested on: T12, B. multivorans AU11204; test: microbe, parasite or virus in culture; conditions: Burkholderia multivorans, AU11204
T12 construct: AU11204
Outline: as §1

[13] = tested on: T13, B. cenocepacia AU9215; test: microbe, parasite or virus in culture; conditions: Burkholderia cenocepacia, AU9215
T13 construct: AU9215
Outline: as §1

[14] = tested on: T14, B. ambifaria AU5203; test: microbe, parasite or virus in culture; conditions: Burkholderia ambifaria, AU5203
T14 construct: AU5203
Outline: as §1

[15] = tested on: T15, B. multivorans AU25626; test: microbe, parasite or virus in culture; conditions: Burkholderia multivorans, AU25626
T15 construct: AU25626
Outline: as §1

[16] = tested on: T16, B. contaminans AU2244; test: organism not typed
T16 construct: AU2244
Outline: as §1

[17] = tested on: T17, B. cenocepacia AU12265; test: microbe, parasite or virus in culture; conditions: Burkholderia cenocepacia, AU12265
T17 construct: AU12265
Outline: as §1

[18] = tested on: T18, B. cenocepacia AU28111; test: microbe, parasite or virus in culture; conditions: Burkholderia cenocepacia, AU28111
T18 construct: AU28111
Outline: as §1

[19] = tested on: T19, B. cenocepacia AU20146; test: microbe, parasite or virus in culture; conditions: Burkholderia cenocepacia, AU20146
T19 construct: AU20146
Outline: as §1

[20] = tested on: T20, B. pseudomultivorans AU19682; test: organism not typed
T20 construct: AU19682
Outline: as §1

[21] = tested on: T21, B. cenocepacia AU20998; test: microbe, parasite or virus in culture; conditions: Burkholderia cenocepacia, AU20998
T21 construct: AU20998
Outline: as §1

[22] = tested on: T22, B. cenocepacia AU0583; test: microbe, parasite or virus in culture; conditions: Burkholderia cenocepacia, AU0583
T22 construct: AU0583
Outline: as §1

[23] = tested on: T23, B. multivorans AU14786; test: microbe, parasite or virus in culture; conditions: Burkholderia multivorans, AU14786
T23 construct: AU14786
Outline: as §1

For `C[C@H]1COc2c(N3CCN(C)CC3)c(F)cc3c(=O)c(C(=O)O)cn1c23` [levofloxacin], the MIC [1] was 2 µg/mL (≈ 5.53 µM), the MIC [2] was 8 µg/mL (≈ 22.1 µM) and the MIC [3] was over 32 µg/mL. It also gave an MIC [4] of 8 µg/mL (≈ 22.1 µM), an MIC [5] of 2 µg/mL (≈ 5.53 µM) and an MIC [6] of 2 µg/mL (≈ 5.53 µM). For the same molecule, the MIC [7] was 16 µg/mL (≈ 44.3 µM), the MIC [8] was 4 µg/mL (≈ 11.1 µM) and the MIC [9] was 32 µg/mL (≈ 88.6 µM). It also gave an MIC [10] of over 32 µg/mL, an MIC [11] of 8 µg/mL (≈ 22.1 µM) and an MIC [12] of 2 µg/mL (≈ 5.53 µM). The MIC [13] was 32 µg/mL (≈ 88.6 µM), the MIC [14] was over 32 µg/mL and the MIC [15] was 4 µg/mL (≈ 11.1 µM). It also gave an MIC [16] of 4 µg/mL (≈ 11.1 µM), an MIC [17] of 4 µg/mL (≈ 11.1 µM) and an MIC [18] of 4 µg/mL (≈ 11.1 µM). For the same molecule, the MIC [19] was 2 µg/mL (≈ 5.53 µM), the MIC [20] was 16 µg/mL (≈ 44.3 µM) and the MIC [21] was over 32 µg/mL. For the same molecule, the MIC [22] was over 32 µg/mL and the MIC [23] was over 32 µg/mL.

`CO/N=C(\C(=O)N[C@@H]1C(=O)N2C(C(=O)[O-])=C(C[N+]3(C)CCCC3)CS[C@H]12)c1csc(N)n1` [cefepime] was tested, and the MIC [1] was 8 µg/mL (≈ 16.6 µM), the MIC [2] was 8 µg/mL (≈ 16.6 µM) and the MIC [3] was 32 µg/mL (≈ 66.6 µM). The MIC [4] was over 32 µg/mL, the MIC [5] was 8 µg/mL (≈ 16.6 µM) and the MIC [6] was 4 µg/mL (≈ 8.32 µM). It also gave an MIC [7] of over 32 µg/mL, an MIC [8] of 16 µg/mL (≈ 33.3 µM) and an MIC [9] of over 32 µg/mL. It also gave an MIC [10] of over 32 µg/mL, an MIC [11] of over 32 µg/mL and an MIC [12] of 4 µg/mL (≈ 8.32 µM). It also gave an MIC [13] of over 32 µg/mL, an MIC [14] of 16 µg/mL (≈ 33.3 µM) and an MIC [15] of 8 µg/mL (≈ 16.6 µM). For the same molecule, the MIC [16] was 16 µg/mL (≈ 33.3 µM), the MIC [17] was 16 µg/mL (≈ 33.3 µM) and the MIC [18] was 32 µg/mL (≈ 66.6 µM). It also gave an MIC [19] of 16 µg/mL (≈ 33.3 µM), an MIC [20] of over 32 µg/mL and an MIC [21] of over 32 µg/mL. It also gave an MIC [22] of 32 µg/mL (≈ 66.6 µM) and an MIC [23] of over 32 µg/mL.

Molecule `C[C@@H](O)[C@H]1C(=O)N2C(C(=O)O)=C(S[C@@H]3CN[C@H](C(=O)N(C)C)C3)[C@H](C)[C@H]12` [meropenem] has an MIC [1] of 4 µg/mL (≈ 10.4 µM), an MIC [2] of 8 µg/mL (≈ 20.9 µM) and an MIC [3] of 4 µg/mL (≈ 10.4 µM). For the same molecule, the MIC [4] was 16 µg/mL (≈ 41.7 µM), the MIC [5] was 2 µg/mL (≈ 5.22 µM) and the MIC [6] was 1 µg/mL (≈ 2.61 µM). The MIC [7] was 32 µg/mL (≈ 83.4 µM), the MIC [8] was 4 µg/mL (≈ 10.4 µM) and the MIC [9] was 16 µg/mL (≈ 41.7 µM). It also gave an MIC [10] of 8 µg/mL (≈ 20.9 µM), an MIC [11] of 16 µg/mL (≈ 41.7 µM) and an MIC [12] of 2 µg/mL (≈ 5.22 µM). For the same molecule, the MIC [13] was 16 µg/mL (≈ 41.7 µM), the MIC [14] was 4 µg/mL (≈ 10.4 µM) and the MIC [15] was over 32 µg/mL. It also gave an MIC [16] of 4 µg/mL (≈ 10.4 µM), an MIC [17] of 4 µg/mL (≈ 10.4 µM) and an MIC [18] of 4 µg/mL (≈ 10.4 µM). For the same molecule, the MIC [19] was 4 µg/mL (≈ 10.4 µM), the MIC [20] was 8 µg/mL (≈ 20.9 µM) and the MIC [21] was 8 µg/mL (≈ 20.9 µM). For the same molecule, the MIC [22] was 4 µg/mL (≈ 10.4 µM) and the MIC [23] was 16 µg/mL (≈ 41.7 µM).
